Assay: stability of absorbance spectrum under intense pulsed light (IPL) flashes
Format: physicochemical
Conditions: ten pulses at the maximum power of the flash lamp
Text: Another aspect of the present invention is that controlled dissociation of the sodium-copper-chlorophyllin complex can occur in part because of the high stability of this complex. Normally, inorganic and organic copper salts, including copper-peptides, are not very stable with regard to binding copper. The inherent stability and lack of reactivity of sodium-copper-chlorophyllin is essential for this process to work successfully. […] Stability was monitored by measurement of the dye's full absorbance spectrum, since degradation of the dye would be detectable as changes in the absorbance spectrum.

- absorbance spectrum after IPL exposure (thermal and light stability): remained unchanged
Substance: sodium-copper-chlorophyllin
